Experiments:
[1] = Acute toxicity (LD50), technique of Karber and Behrens; settings: mouse, in vivo, ip
Method: (§1) The LD50 was determined on the mouse by intraperitonel route using the technique of KARBER and BEHRENS.

[2] = system: mouse; assay: as above; settings: intraperitoneal LD50, in words
Method: as §1

[3] = system: mice; assay: Pentylenetetrazol-induced seizure (anticonvulsant action); type: in vivo, mice (OF 1); settings: Mus musculus, ip, i.p., 125 mg/kg pentylenetetrazol i.p.
Method: The purpose of this test which is carried out on mice is to determine whether the compounds of the invention, when given preventively by intraperitoneal route, are capable at certain doses of protecting some of the animals against the epileptic seizure produced by an adequate and predetermined dose of pentylenetetrazol which would be 100% fatal in the absence of the compound. The test was carried out on batches of 10 male OF 1 mice weighing about 25 g.

[4] = system: mice; assay: Maximum electroshock seizure (anticonvulsant action); type: in vivo, mice (OF 1)
Method: This seizure is characterized in the mouse by extension of the back paws for 5 to 10 seconds. The extension is similar to that observed during the tonicoclonic seizures provoked by chemical convulsants such as pentylenetetrazol or strychnine.
The test was carried out on batches of 10 mice of the OF 1 strain weighing about 22 g. […] Fifteen minutes later, each animal received an electric shock of twice threshold intensity (about 60 volts).
This latter value is indicated by the symbol HD50 or hypnotic dose 50 and the efficacy index by the fraction: [formula]

[5] = system: mice; assay: Posture reflex (hypnotic properties); type: in vivo, mice (OF 1); settings: Mus musculus, ip, i.p., read-out: HD50, loss of posture reflex
Method: Male mice of the OF 1 strain, weighing about 25 g. were divided into batches of 10. The animals of each batch were given an intraperitoneal dose of the compound to be studied so that each batch received a higher dose than the preceding batch.
The numbers of animals which lost the reflex at various times after administration were noted.
In this way, the HD50 at different times after administration was determined i.e. the dose of the compound under study which caused 50% of the animals to lose the posture reflex at a given time after administration.

[6] = system: mice; assay: Chimney test (tranquillizing properties); type: in vivo; settings: Mus musculus, ip; 50% failed to get out of the test-tube within 30 seconds
Method: This test enables two groups of factors to be evaluated namely neuromuscular factors (muscular strength, agility, coordination of movements) and psychological factors (curiosity, fright, flight instinct).
It was carried out on batches of 10 mice weighing about 25 g each. The compound to be studied was given to each batch by intraperitoneal route so that each batch received a higher dose than the preceding batch. The mice were placed, one after another, head first in a test-tube 30 cm long and calibrated in accordance with the size of the mouse so that by moving backwards the animal could get out of the tube in less than 30 seconds. The number of animals which were unable to do this was noted.

[7] = system: mice; assay: Evasion test (tranquillizing properties); type: in vivo; settings: for Total number of exits per batch: batch of 28 mice; for Average time before first exit: controls 14
Method: This test enables the exploring capacities of mice to be studied. A parallelepipedic lidless plywood box is used which contains an inclined plane, also of plywood, covered with a fine mesh. A horizontal datum line is marked on the inclined plane 2 cm below the point at which the plane bears on the box edge. The whole device is placed in an artificially lit room away from all shrill noise. Any crossing, in an upward direction, by a mouse of the datum line is termed an "exit".
The test was carried out on batches of 28 mice weighing about 22 g. The animals of each batch received an intraperitoneal dose of the compound to be studied so that each batch received a higher dose than the preceding batch.
Thirty minutes after administration of the compound, the animals were placed in the box by batches and kept at the bottom for 10 seconds by a movable board. The average length or time after which the first exit occurred was noted as well as the total number of exits per batch every minute for 5 minutes. The same details were also recorded for a control batch which had not received the compound. The following results were obtained with the preferred compound of the invention namely sodium tri-n-propylacetate: […]

[8] = system: mice; assay: Hole-board test (tranquillizing properties); type: in vivo, mice (OF 1); settings: for Total number of holes explored: batch of 10
Method: This test enables a quantitative evaluation to be made of the exploring capabilities of mice in relation to their curiosity. The material comprises a board 40 cm × 40 cm and 1.7 cm thick in which 16 holes, 3 cm in diameter, have been cut. The board is placed upon four legs sufficiently high (1.5 m) for the holes to appear bottomless to the animals. The experiment is carried out in as great a silence as possible.
The test was performed on batches of 10 male OF 1 mice weighing about 23 g. The animals of each batch were given an intraperitoneal dose of the compound to be tested so that each batch received a higher dose than the preceding batch. […] Thirty minutes after administration, each batch was placed in the middle of the board and the total number of holes explored by each batch was noted every minute for 5 minutes.

[9] = 0.25 h, 15 min. after administration
[10] = 0.5 h, 30 min. after administration

Which LD50 [1] does the source give for `CCCC(CCC)(CCC)C(=O)[O-].[Na+]` [Sodium tri-n-propylacetate, sodium tri-n-propylacetate] here?
Its LD50 is 327 mg/kg.

What about the selectivity ratio [1] of the same molecule?
Its selectivity ratio is 20 to 80.

What about the “Acute toxicity compared with diazepam” value [2] of the same molecule?
The value was “much less toxic than diazepam”.

What about the ED50 ([3]; 0.125 h, 7 min. 30 sec after administration) of the same molecule?
Its ED50 is 78 mg/kg.

And the ED50 [3, 9]?
Its ED50 is 66 mg/kg.

And the ED50 [3, 10]?
Its ED50 is 110 mg/kg.

What about the ED50 ([4]; Mus musculus, ip, 0.25 h, i.p., 15 min after administration, protection of 50% against tonic seizures) of the same molecule?
The ED50 was 130 mg/kg.

And the “Efficacy index (HD50 compared with ED50)” value ([4]; electroshock ED50 versus hypnotic dose 50)?
The value was 1.0.

What about the ED50 [5, 9] of the same molecule?
The ED50 was 120 mg/kg.

What about the ED50 [5, 10] of the same molecule?
Its ED50 is 130 mg/kg.

What about the ED50 ([5]; 0.75 h, 45 min. after administration) of the same molecule?
Its ED50 is 150 mg/kg.

And the ED50 ([5]; 1 h, 60 min. after administration)?
The ED50 was 200 mg/kg.

And the ED50 [6]?
The ED50 was 72 mg/kg.

And the “Total number of exits per batch” value ([7]; 50 mg/kg i.p., 1 min.)?
Its value is 54.

And the “Total number of exits per batch” value ([7]; 50 mg/kg i.p., 2 min.)?
The value was 44.

What about the “Total number of exits per batch” value ([7]; 50 mg/kg i.p., 3 min.) of the same molecule?
The value was 43.

And the “Total number of exits per batch” value ([7]; 50 mg/kg i.p., 4 min.)?
Its value is 41.

And the “Total number of exits per batch” value ([7]; 50 mg/kg i.p., 5 min.)?
The value was 28.

What about the “Average time before first exit” value ([7]; 50 mg/kg i.p.) of the same molecule?
Its value is 25 s.

What about the “Total number of exits per batch” value ([7]; 75 mg/kg i.p., 1 min.) of the same molecule?
The value was 44.

And the “Total number of exits per batch” value ([7]; 75 mg/kg i.p., 2 min.)?
The value was 37.

And the “Total number of exits per batch” value ([7]; 75 mg/kg i.p., 3 min.)?
The value was 31.

And the “Total number of exits per batch” value ([7]; 75 mg/kg i.p., 4 min.)?
Its value is 34.

What about the “Total number of exits per batch” value ([7]; 75 mg/kg i.p., 5 min.) of the same molecule?
The value was 28.

What about the “Average time before first exit” value ([7]; 75 mg/kg i.p.) of the same molecule?
Its value is 21 s.

What about the “Total number of holes explored” value ([8]; 50 mg/kg i.p., 1 min.) of the same molecule?
Its value is 15.

What about the “Total number of holes explored” value ([8]; 50 mg/kg i.p., 2 min.) of the same molecule?
Its value is 13.

What about the “Total number of holes explored” value ([8]; 50 mg/kg i.p., 3 min.) of the same molecule?
Its value is 14.

And the “Total number of holes explored” value ([8]; 50 mg/kg i.p., 4 min.)?
Its value is 19.

What about the “Total number of holes explored” value ([8]; 50 mg/kg i.p., 5 min.) of the same molecule?
Its value is 17.

And the “Total number of holes explored” value ([8]; 75 mg/kg i.p., 1 min.)?
The value was 2.

And the “Total number of holes explored” value ([8]; 75 mg/kg i.p., 2 min.)?
Its value is 6.

And the “Total number of holes explored” value ([8]; 75 mg/kg i.p., 3 min.)?
Its value is 3.

What about the “Total number of holes explored” value ([8]; 75 mg/kg i.p., 4 min.) of the same molecule?
Its value is 1.

What about the “Total number of holes explored” value ([8]; 75 mg/kg i.p., 5 min.) of the same molecule?
The value was 7.

And the “Effect on the animals' curiosity” value ([8]; hole-board test, in words)?
The value was “tends to reduce the animals' curiosity”.

Source: patent publication US3958011A, “Compositions of tri-n-propylacetic acid and salts thereof and treatment of neurological disorders with such compositions” (priority 1972, dated 1976)
